This assay deals with T1, human FFAR1 (GPR40) (Homo sapiens, UniProt O14842).
T1 construct: Flag; expressed in transfected cells; host or cells: HEK293T
Put plainly: NFAT-RE-based reporter gene activity assay (Dual-Glo luciferase) for GPR40 agonistic activity in co-transfected HEK293T cells. Type of assay: cell-based. The following applies: 4-hour treatment; for Efficacy (%): class symbols. The source says: The pcDNA3.0-flag-FFAR1 (GPR40) plasmid was constructed using conventional molecular cloning methods. The main steps were as follows: The full-length cDNA sequence of human FFAR1 (GPR40) (NM_005303.3) was inserted into the HindIII and XbaI restriction sites of the pcDNA3.0 vector via PCR technology, resulting in the pcDNA3.0-flag-FFAR1 (GPR40) plasmid; pGL4.30 [luc2P NFAT-RE] (# E8481) and pRL-TK (#E2241) plasmids were both purchased from Promega; the plasmids were transformed into DH5α E. coli using the CaCl2 method, further cultured and amplified, and then purified using a plasmid extraction kit (TIANGEN, # DP117) to obtain the corresponding plasmid DNA.
HEK293T cells were seeded in a 96-well plate at a density of 1 × 10^4/well one day prior to plasmid transfection. Cell transfection was performed according to the instructions of the transfection reagent FuGENE® HD (Promega, # E2311). The main steps were as follows: Taking one well as an example, plasmids pcDNA3.0-flag-FFAR1 (GPR40), pGL4.30 [luc2P NFAT-RE], and pRL-TK were added at ratios of 50 ng, 50 ng, and 5 ng, respectively, into 10 µL of Opti-MEM™ I medium (Gibco, #11058021) and mixed thoroughly; then, 0.2 µL of FuGENE® HD was added, mixed thoroughly, and allowed to stand at room temperature for 5 minutes; finally, this 10 µL mixture was added to the cell well containing 100 µL of culture medium. 24 hours after co-transfection, the compounds were serially diluted at half-logarithmic intervals with 1 µM as the highest concentration, resulting in 10 concentration gradients, which were added to the cell culture medium for a 4-hour treatment.
After 4 hours of compound treatment, the cells were assayed according to the instructions of the Dual-Glo® Luciferase Assay System (Promega, # E2940). The main steps were as follows: 50 µL of culture medium was aspirated from each well and discarded, followed by the addition of 50 µL of Dual-Glo® Luciferase Reagent, and the mixture was shaken at room temperature for 10 minutes. Then, 80 µL of the lysate reaction solution was transferred to a white opaque optiPlate-96 well plate, and the luminescence signal of Firefly luciferase (Firefly-Luc) was measured using an MD i3x multifunctional microplate reader. Subsequently, 40 µL of Dual-Glo® Stop & Glo® Reagent was added, and the mixture was shaken at room temperature for 10 minutes. Finally, the luminescence signal of Renilla luciferase (Renilla-Luc) was measured using the MD i3x multifunctional microplate reader. The ratio of Firefly-Luc/Renilla-Luc was used as the compound's agonistic activity toward GPR40, and normalization was performed using the ratio of the solvent DMSO group. A dose-response curve was fitted using a four-parameter model with GraphPad Prism 8.0 software to calculate the EC50 value.

Some results are limits rather than exact numbers.

T1 sequence (O14842 whole entry): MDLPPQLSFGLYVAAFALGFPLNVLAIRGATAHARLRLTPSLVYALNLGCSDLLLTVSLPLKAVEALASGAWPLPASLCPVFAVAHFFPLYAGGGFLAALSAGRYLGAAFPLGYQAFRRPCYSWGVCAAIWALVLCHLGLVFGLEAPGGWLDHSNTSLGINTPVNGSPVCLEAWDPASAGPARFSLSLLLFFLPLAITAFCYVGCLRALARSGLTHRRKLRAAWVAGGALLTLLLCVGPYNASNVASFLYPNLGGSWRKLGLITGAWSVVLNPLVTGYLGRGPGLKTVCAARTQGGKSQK

For `CCCCC(C)(C)c1nnc(-c2c(C3CCN(c4cccc(OC)c4)CC3)oc3cc(C(CC(=O)O)C4CC4)ccc23)o1` (centres unmarked) [Compound 130], the EC50 fell in the range of 10 to 100 nM and the “Efficacy (%)” value is “†† (150 ≥ Efficacy (%) > 100)”.

As to `COc1cccc(N2CCC(c3oc4cc(C(CC(=O)O)C5CC5)ccc4c3C(=O)NC34CC(C3)C4)CC2)c1` (centres unmarked) [Compound 345], the EC50 fell in the range of 100 to 500 nM and the “Efficacy (%)” value is on record as “†† (150 ≥ Efficacy (%) > 100)”.

With `CCCC(C)(C)c1nnc(-c2c(C3CCN(c4cccc(OC)c4)CC3)oc3cc(C(CC(=O)O)C4CC4)ccc23)o1` (centres unmarked) [Compound 129], the half-maximal effective concentration (EC50) was in the range of 10 to 100 nM and the “Efficacy (%)” value was “†† (150 ≥ Efficacy (%) > 100)”.

`COc1cccc(N2CCC(c3oc4cc([C@@H](CC(=O)O)C5CC5)ccc4c3-c3csc(C(C)(C)C)n3)CC2)c1` [Compound 108]: the EC50 was 10 to 100 nM and the “Efficacy (%)” value is on record as “††† (Efficacy (%) > 150)”.

Regarding `COc1cccc(N2CCC(c3oc4cc([C@@H](CC(=O)O)C5CC5)ccc4c3C(OCC(C)C)c3ccc(F)cc3)CC2)c1` (some centres unmarked) [Compound 431], the EC50 was in the range of 100 to 500 nM and the “Efficacy (%)” value is given as “†† (150 ≥ Efficacy (%) > 100)”.

Take `COc1cccc(N2CCC(c3oc4cc([C@@H](CC(=O)O)C5CC5)ccc4c3C(=O)Nc3cc(C)ccc3Br)CC2)c1` [Compound 273]: the EC50 was at most 10 nM and the “Efficacy (%)” value was “†† (150 ≥ Efficacy (%) > 100)”.

As for `COc1cccc(N2CCC(c3oc4cc(C(CC(=O)O)C5CC5)ccc4c3C(=O)Nc3cccc(OC)c3F)CC2)c1` (centres unmarked) [Compound 258], the concentration giving a half-maximal response (EC50) was 100 to 500 nM and the “Efficacy (%)” value is “††† (Efficacy (%) > 150)”.

With `COc1ccc(F)c(N2CCC(c3oc4cc([C@@H](CC(=O)O)C5CC5)ccc4c3-c3ccc(C(C)O)cc3)CC2)c1` (some centres unmarked) [Compound 175], the EC50 is above 500 nM and the “Efficacy (%)” value was “†† (150 ≥ Efficacy (%) > 100)”.

Regarding `COc1cccc(N2CCC(c3oc4cc([C@@H](CC(=O)O)C5CC5)ccc4c3/C=C/C(C)(C)C)CC2)c1` [Compound 361], the EC50 was 10 to 100 nM and the “Efficacy (%)” value was “†† (150 ≥ Efficacy (%) > 100)”.

Take `COc1cccc(N2CCC(c3oc4cc(C(CC(=O)O)C5CC5)ccc4c3Cc3nnc(C(C)(C)C)o3)CC2)c1` (centres unmarked) [Compound 450]: the EC50 lay within 100 to 500 nM and the “Efficacy (%)” value is “† (100 ≥ Efficacy (%) > 50)”.

With `COc1cccc(N2CCC(c3oc4cc([C@@H](CC(=O)O)C5CC5)ccc4c3COC(=O)C(C)(C)C)CC2)c1` [Compound 398], the 50% effective concentration (EC50) was 100 to 500 nM and the “Efficacy (%)” value is given as “††† (Efficacy (%) > 150)”.

Regarding `COCC(C)(C)n1cc(-c2c(C3CCN(c4cccc(OC)c4)CC3)oc3cc(C(CC(=O)O)C4CC4)ccc23)cn1` (centres unmarked) [Compound 48], the 50% effective concentration (EC50) lay in the range of 100 to 500 nM and the “Efficacy (%)” value is recorded as “†† (150 ≥ Efficacy (%) > 100)”.

As for `COc1cccc(N2CCC(c3oc4cc([C@@H](CC(=O)O)C5CC5)ccc4c3-c3nc(C(C)(C)C)co3)CC2)c1` [Compound 117], the EC50 was 10 to 100 nM and the “Efficacy (%)” value is recorded as “†† (150 ≥ Efficacy (%) > 100)”.

As to `COc1cccc(N2CCC(c3oc4cc(C(CC(=O)O)C5CC5)ccc4c3C(=O)NC3CCC(C)(C)CC3)CC2)c1` (centres unmarked) [Compound 348], the EC50 lay in the range of 100 to 500 nM and the “Efficacy (%)” value is “†† (150 ≥ Efficacy (%) > 100)”.

In the case of `COc1ccc(F)c(N2CCC(c3oc4cc([C@H](CC(=O)O)C5CC5)ccc4c3-c3cccc(C(C)(C)C)c3)CC2)c1` [Compound 167], the half-maximal effective concentration (EC50) fell in the range of 100 to 500 nM and the “Efficacy (%)” value was “†† (150 ≥ Efficacy (%) > 100)”.

As to `COc1cccc(N2CCC(c3oc4cc(C(CC(=O)O)C5CC5)ccc4c3-c3nnc(C(C)(C)C)o3)CC2)c1` (centres unmarked) [Compound 124], the EC50 was in the range of 10 to 100 nM and the “Efficacy (%)” value is listed as “†† (150 ≥ Efficacy (%) > 100)”.

Regarding `CNC(=O)c1ccc(OC)cc1N1CCC(c2oc3cc(C(CC(=O)O)C4CC4)ccc3c2-c2cnn(C(C)(C)C)c2)CC1` (centres unmarked) [Compound 91], the 50% effective concentration (EC50) fell in the range of 100 to 500 nM and the “Efficacy (%)” value is “† (100 ≥ Efficacy (%) > 50)”.

In the case of `CCCCC(c1ccccc1)c1c(C2CCN(c3cccc(OC)c3)CC2)oc2cc([C@@H](CC(=O)O)C3CC3)ccc12` (some centres unmarked) [Compound 386], the EC50 was 10 to 100 nM and the “Efficacy (%)” value is listed as “†† (150 ≥ Efficacy (%) > 100)”.

In the case of `COc1cccc(N2CCC(c3oc4cc(C(CC(=O)O)C5CC5)ccc4c3C(=O)Nc3cc(C(C)(C)C)on3)CC2)c1` (centres unmarked) [Compound 300], the concentration for a half-maximal effect (EC50) lay in the range of 100 to 500 nM and the “Efficacy (%)” value is on record as “†† (150 ≥ Efficacy (%) > 100)”.

For `COc1cccc(N2CCC(c3oc4cc(C(CC(=O)O)C5CC5)ccc4c3C(=O)Nc3c(F)cccc3OC)CC2)c1` (centres unmarked) [Compound 259], the EC50 is above 500 nM and the “Efficacy (%)” value was “†† (150 ≥ Efficacy (%) > 100)”.

In the case of `COc1cccc(N2CCC(c3oc4cc(C(CC(=O)O)C5CC5)ccc4c3C(=O)Nc3nc4ccccc4s3)CC2)c1` (centres unmarked) [Compound 297], the 50% effective concentration (EC50) was in the range of 100 to 500 nM and the “Efficacy (%)” value is “†† (150 ≥ Efficacy (%) > 100)”.

Regarding `Cc1cccc(N2CCC(c3oc4cc(C(CC(=O)O)C5CC5)ccc4c3-c3cccc(C(C)(C)C)c3)CC2)c1` (centres unmarked) [Compound 4], the concentration giving a half-maximal response (EC50) is 100 to 500 nM and the “Efficacy (%)” value was “† (100 ≥ Efficacy (%) > 50)”.

In the case of `COc1ccc(F)c(N2CCC(c3oc4cc([C@@H](CC(=O)O)C5CC5)ccc4c3CCC(C)(C)C)CC2)c1` [Compound 389], the half-maximal effective concentration (EC50) is 100 to 500 nM and the “Efficacy (%)” value is “†† (150 ≥ Efficacy (%) > 100)”.

As to `CC(C)(C)n1cc(-c2c(C3CCN(c4ccc5c(c4)OCO5)CC3)oc3cc([C@@H](CC(=O)O)C4CC4)ccc23)cn1` [Compound 97], the half-maximal effective concentration (EC50) was in the range of 10 to 100 nM and the “Efficacy (%)” value is given as “†† (150 ≥ Efficacy (%) > 100)”.

With `COc1cccc(N2CCC(c3oc4cc(C(CC(=O)O)C5CC5)ccc4c3-c3ccc(C(C)(C)C)cc3)CC2)c1` (centres unmarked) [Compound 13], the EC50 lay within 100 to 500 nM and the “Efficacy (%)” value is given as “††† (Efficacy (%) > 150)”.

Consider `CCCCC[C@H]1CC[C@H](c2nnc(-c3c(C4CCN(c5cccc(OC)c5)CC4)oc4cc(C(CC(=O)O)C5CC5)ccc34)o2)CC1` (relative stereo) [Compound 138], for which the EC50 was in the range of 100 to 500 nM and the “Efficacy (%)” value is recorded as “†† (150 ≥ Efficacy (%) > 100)”.

As to `COc1ccc(F)c(N2CCC(c3oc4cc(C(CC(=O)O)C5CC5)ccc4c3C(=O)NCC(C)C)CC2)c1` (centres unmarked) [Compound 310], the EC50 was 100 to 500 nM and the “Efficacy (%)” value is “†† (150 ≥ Efficacy (%) > 100)”.

Turning to `COc1cccc(N2CCC(c3oc4cc([C@@H](CC(=O)O)C5CC5)ccc4c3-c3cnc(C(C)(C)C)s3)CC2)c1` [Compound 103], the EC50 fell in the range of 10 to 100 nM and the “Efficacy (%)” value is listed as “†† (150 ≥ Efficacy (%) > 100)”.

For `COc1cccc(N2CCC(c3oc4cc(C(CC(=O)O)C5CC5)ccc4c3-c3csc(C(C)C)n3)CC2)c1` (centres unmarked) [Compound 106], the 50% effective concentration (EC50) lay within 10 to 100 nM and the “Efficacy (%)” value is recorded as “†† (150 ≥ Efficacy (%) > 100)”.

As for `COc1ccc(F)c(N2CCC(c3oc4cc([C@H](C5CC5)C(F)C(=O)O)ccc4c3-c3cccc(C(C)(C)C)c3)CC2)c1` (some centres unmarked) [Compound 219], the concentration for a half-maximal effect (EC50) fell in the range of 10 to 100 nM and the “Efficacy (%)” value is recorded as “† (100 ≥ Efficacy (%) > 50)”.

With `COc1cccc(N2CCC(c3oc4cc(C(CC(=O)O)C5CC5)ccc4c3C(=O)Nc3c(F)cccc3F)CC2)c1` (centres unmarked) [Compound 256], the EC50 was 100 to 500 nM and the “Efficacy (%)” value is on record as “††† (Efficacy (%) > 150)”.
